Assay results from patent US9540392B2, “Thienopyrimidines” (BAYER PHARMA AKTIENGESELLSCHAFT, priority 2012, dated 2017).

Target: T1, human full-length MKNK1 (Homo sapiens, UniProt Q9BUB5, T385D)
T1 construct: GST (N); purchased Carna Biosciences 02-145; host or cells: insect cells (baculovirus expression system)
Test: MKNK1 kinase high ATP assay (TR-FRET)
Type: biochemical
Settings: 2 mM ATP, after preincubation with MKNK1; read-out: MKNK1 IC50 (MKNK1 high ATP)
Method in brief: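 Compound was preincubated 15 min at 22° C. with MKNK1 in 50 mM HEPES pH 7.5, 5 mM MgCl2, 1.0 mM DTT, then the reaction ran 30 min at 22° C. with 2 mM ATP and 0.06 μM biotinylated peptide (final).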

T1 sequence (Q9BUB5 1-424 isoform Q9BUB5-2 T344D): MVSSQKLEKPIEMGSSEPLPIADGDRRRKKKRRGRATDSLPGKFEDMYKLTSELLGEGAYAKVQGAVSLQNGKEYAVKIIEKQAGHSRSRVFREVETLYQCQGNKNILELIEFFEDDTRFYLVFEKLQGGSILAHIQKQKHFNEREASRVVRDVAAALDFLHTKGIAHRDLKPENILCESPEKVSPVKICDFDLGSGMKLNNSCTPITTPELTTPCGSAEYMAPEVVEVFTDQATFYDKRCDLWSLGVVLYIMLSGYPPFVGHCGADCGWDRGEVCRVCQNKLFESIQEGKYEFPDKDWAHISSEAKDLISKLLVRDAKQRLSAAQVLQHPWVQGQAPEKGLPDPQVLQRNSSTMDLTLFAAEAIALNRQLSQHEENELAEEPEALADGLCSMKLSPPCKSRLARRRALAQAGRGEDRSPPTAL

Row | SMILES | IC50
1 | O=C(C1CCc2c(sc3ncnc(Nc4ccc5[nH]ncc5c4)c23)C1)N1CCN(Cc2ccncc2)CC1 (racemic) [Example 142, (RS)-[4-(1H-indazol-5-ylamino)-5,6,7,8-tetrahydro[1]benzothieno[2,3-d]pyrimidin-7-yl][4-(pyridin-4-ylmethyl)piperazin-1-yl]methanone] | 22.4 nM
2 | CC(C)(NC(=O)C1CCc2c(sc3ncnc(Nc4ccc5[nH]ncc5c4)c23)C1)c1ccc(F)cc1 (racemic) [Example 161, (RS)-N-[2-(4-fluorophenyl)propan-2-yl]-4-(1H-indazol-5-ylamino)-5,6,7,8-tetrahydro[1]benzothieno[2,3-d]pyrimidine-7-carboxamide] | 3.2 nM
3 | CN1CCN(C(=O)C2CCc3c(sc4ncnc(Nc5ccc6[nH]ncc6c5)c34)C2)CC1CCO (racemic) [Example 197, (RS)-[3-(2-hydroxyethyl)-4-methylpiperazin-1-yl][4-(1H-indazol-5-ylamino)-5,6,7,8-tetrahydro[1]benzothieno[2,3-d]pyrimidin-7-yl]methanone] | 7.9 nM
4 | CCN(C(=O)C1CCc2c(sc3ncnc(Nc4cc5cn[nH]c5cc4OC)c23)C1)C(C)C (stereo not drawn) [Example 67, N-Ethyl-4-[(6-Methoxy-1H-indazol-5-yl)amino]-N-(propan-2-yl)-5,6,7,8-tetrahydro[1]benzothieno[2,3-d]pyrimidine-7-carboxamide] | 0.7 nM
5 | O=C(C1CCc2c(sc3ncnc(Nc4ccc5[nH]ncc5c4)c23)C1)N1CCN(CC2CC2)CC1 (racemic) [Example 191, (RS)-[4-(cyclopropylmethyl)piperazin-1-yl][4-(1H-indazol-5-ylamino)-5,6,7,8-tetrahydro[1]benzothieno[2,3-d]pyrimidin-7-yl]methanone] | 7.3 nM
6 | CCN(C)C(=O)C1CCc2c(sc3ncnc(Nc4cc5cn[nH]c5cc4OC)c23)C1 (racemic) [Example 179, (RS)—N-Ethyl-4-[(6-methoxy-1H-indazol-5-yl)amino]-N-methyl-5,6,7,8-tetrahydro[1]benzothieno[2,3-d]pyrimidine-7-carboxamide] | 0.7 nM
7 | CN(C)C(=O)CN(C)C(=O)C1CCc2c(sc3ncnc(Nc4ccc5[nH]ncc5c4)c23)C1 (racemic) [Example 120, (RS)-N-[2-(dimethylamino)-2-oxoethyl]-4-(1H-indazol-5-ylamino)-N-methyl-5,6,7,8-tetrahydro[1]benzothieno[2,3-d]pyrimidine-7-carboxamide] | 8.3 nM
8 | O=C(C1CCc2c(sc3ncnc(Nc4ccc5[nH]ncc5c4)c23)C1)N1CCC(c2ccccc2)CC1 (racemic) [Example 127, (RS)-[4-(1H-indazol-5-ylamino)-5,6,7,8-tetrahydro[1]benzothieno[2,3-d]pyrimidin-7-yl](4-phenylpiperidin-1-yl)methanone] | 10.7 nM
9 | Cc1cccc(N2CCN(C(=O)C3CCc4c(sc5ncnc(Nc6ccc7[nH]ncc7c6)c45)C3)CC2)c1 (racemic) [Example 111, (RS)-[4-(1H-indazol-5-ylamino)-5,6,7,8-tetrahydro[1]benzothieno[2,3-d]pyrimidin-7-yl][4-(3-methylphenyl)piperazin-1-yl]methanone] | 24.7 nM
10 | CC1CCN(CCN(C)C(=O)C2CCc3c(sc4ncnc(Nc5ccc6[nH]ncc6c5)c34)C2)CC1 (racemic) [Example 169, (RS)-4-(1H-indazol-5-ylamino)-N-methyl-N-[2-(4-methylpiperidin-1-yl)ethyl]-5,6,7,8-tetrahydro[1]benzothieno[2,3-d]pyrimidine-7-carboxamide] | 11.1 nM
11 | CCOc1cc2[nH]ncc2cc1Nc1ncnc2sc3c(c12)CCC(C(=O)N(C)CC(O)CO)C3 (racemic) [Example 257, (7RS)—N-[(2RS)-2,3-Dihydroxypropyl]-4-[(6-ethoxy-1H-indazol-5-yl)amino]-N-methyl-5,6,7,8-tetrahydro[1]benzothieno[2,3-d]pyrimidine-7-carboxamide] | 0.6 nM
12 | CC(C)(C)CNC(=O)C1CCc2c(sc3ncnc(Nc4ccc5[nH]ncc5c4)c23)C1 (racemic) [Example 113, (RS)-N-(2,2-dimethylpropyl)-4-(1H-indazol-5-ylamino)-5,6,7,8-tetrahydro[1]benzothieno[2,3-d]pyrimidine-7-carboxamide] | 20.4 nM
13 | CCOc1cc2[nH]ncc2cc1Nc1ncnc2sc3c(c12)CCC(C(=O)N(CC)CCOC)C3 (racemic) [Example 273, (RS)-4-[(6-Ethoxy-1H-indazol-5-yl)amino]-N-ethyl-N-(2-methoxyethyl)-5,6,7,8-tetrahydro[1]benzothieno[2,3-d]pyrimidine-7-carboxamide] | 0.2 nM
14 | O=C(C1CCc2c(sc3ncnc(Nc4ccc5[nH]ncc5c4)c23)C1)N1CCC1 (stereo not drawn) [Example 43, Azetidin-1-yl[4-(1H-indazol-5-ylamino)-5,6,7,8-tetrahydro[1]benzothieno [2,3-d]pyrimidin-7-yl]methanone] | 9 nM
15 | CN(Cc1ccn(C)n1)C(=O)C1CCc2c(sc3ncnc(Nc4ccc5[nH]ncc5c4)c23)C1 (racemic) [Example 137, (RS)-4-(1H-indazol-5-ylamino)-N-methyl-N-[(1-methyl-1H-pyrazol-3-yl)methyl]-5,6,7,8-tetrahydro[1]benzothieno[2,3-d]pyrimidine-7-carboxamide] | 15.6 nM
16 | CC(C)Oc1cc2[nH]ncc2cc1Nc1ncnc2sc3c(c12)CCC(C(=O)N1CCCC1)C3 (racemic) [Example 221, (RS)-(4-{[6-(Propan-2-yloxy)-1H-indazol-5-yl]amino}-5,6,7,8-tetrahydro[1]benzothieno[2,3-d]pyrimidin-7-yl)(pyrrolidin-1-yl)methanone] | 0.7 nM
17 | CN(CCN1CCCC1)C(=O)C1CCc2c(sc3ncnc(Nc4ccc5[nH]ncc5c4)c23)C1 (racemic) [Example 167, (RS)-4-(1H-indazol-5-ylamino)-N-methyl-N-[2-(pyrrolidin-1-yl)ethyl]-5,6,7,8-tetrahydro[1]benzothieno[2,3-d]pyrimidine-7-carboxamide] | 14.9 nM
18 | CN(C)CCN(C)C(=O)C1CCc2c(sc3ncnc(Nc4ccc5[nH]ncc5c4)c23)C1 (stereo not drawn) [Example 45, N-[2-(Dimethylamino)ethyl]-4-(1H-indazol-5-ylamino)-N-methyl-5,6,7,8-tetrahydro[1] benzothieno [2,3-d]pyrimidine-7-carboxamide] | 9 nM
19 | O=C(C1CCc2c(sc3ncnc(Nc4ccc5[nH]ncc5c4)c23)C1)N1CC(N2CCCCC2)C1 (racemic) [Example 200, (RS)-[4-(1H-indazol-5-ylamino)-5,6,7,8-tetrahydro[1]benzothieno[2,3-d]pyrimidin-7-yl][3-(piperidin-1-yl)azetidin-1-yl]methanone] | 8.6 nM
20 | COc1cc2[nH]ncc2cc1Nc1ncnc2sc3c(c12)CCC(C(=O)N1CC(C#N)C1)C3 (racemic) [Example 237, (RS)-1-({4-[(6-Methoxy-1H-indazol-5-yl)amino]-5,6,7,8-tetrahydro[1]benzothieno[2,3-d]pyrimidin-7-yl}carbonyl)azetidine-3-carbonitrile] | 0.3 nM
21 | O=C(NCC(F)(F)F)C1CCc2c(sc3ncnc(Nc4ccc5[nH]ncc5c4)c23)C1 (stereo not drawn) [Example 33, 4-(1H-Indazol-5-ylamino)-N-(2,2,2-trifluoroethyl)-5,6,7,8-tetrahydro[1] benzothieno [2,3-d]pyrimidine-7-carboxamide] | 5 nM
